According to patent publication US9820989B2, “Method of treating conditions with kinase inhibitors” (Allergan, Inc., priority 2012, dated 2017):

Molecular target: PDGFRβ kinase (Homo sapiens (Human), UniProt P09619)
Assay: PDGFRβ Kinase Assay (biochemical, poly-Glu-Tyr ELISA)
Settings: purified cytoplasmic domain PDGFR-b protein, 36 μM ATP
Method: Biochemical PDGFRβ kinase assays were performed in 96 well microliter plates that were coated overnight with 75 μg of poly-Glu-Tyr (4:1) in 10 mM Phosphate Buffered Saline (PBS), pH 7.4. The coated plates were washed with 2 mls per well PBS+0.05% Tween-20 (PBS-T), blocked by incubation with PBS containing 1% BSA, then washed with 2 mls per well PBS-T prior to starting the reaction. Reactions were carried out in 100 μL reaction volumes containing 36 μM ATP in kinase buffer (50 mM Hepes buffer pH 7.4, 20 mM MgCl2, 0.1 mM MnCl2 and 0.2 mM Na3VO4). Test compounds were reconstituted in 100% DMSO and added to the reaction to give a final DMSO concentration of 5%. Reactions were initiated by the addition 20 ul per well of kinase buffer containing 200-300 ng purified cytoplasmic domain PDGFR-b protein (Millipore). […] The reaction was terminated by the addition of 100 μl of 2.5N H2SO4 to each well and read using a microplate ELISA reader set at 492 nm. IC50 values for compound inhibition were calculated directly from graphs of optical density (arbitrary units) versus compound concentration following subtraction of blank values.
IC50 values for test compounds were calculated from % inhibition of PDGF-BB stimulated responses in the absence of inhibitor.

PDGFRβ kinase, sequence (P09619 554-1106): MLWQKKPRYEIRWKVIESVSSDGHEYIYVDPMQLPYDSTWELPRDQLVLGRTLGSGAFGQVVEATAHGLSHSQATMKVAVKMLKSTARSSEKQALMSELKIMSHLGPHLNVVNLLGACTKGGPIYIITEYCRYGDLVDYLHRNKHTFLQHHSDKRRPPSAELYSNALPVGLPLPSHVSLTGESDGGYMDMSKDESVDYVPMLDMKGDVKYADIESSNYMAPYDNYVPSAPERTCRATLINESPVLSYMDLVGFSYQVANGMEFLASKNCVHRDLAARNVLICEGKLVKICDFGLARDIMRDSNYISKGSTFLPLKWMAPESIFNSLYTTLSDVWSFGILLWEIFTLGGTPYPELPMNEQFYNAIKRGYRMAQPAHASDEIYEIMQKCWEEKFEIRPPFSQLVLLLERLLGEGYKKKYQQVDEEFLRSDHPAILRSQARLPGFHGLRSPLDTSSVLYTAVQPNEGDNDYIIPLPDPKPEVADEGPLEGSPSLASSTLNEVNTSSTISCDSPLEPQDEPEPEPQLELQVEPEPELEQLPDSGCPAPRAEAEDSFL

Structure (SMILES): CC(C)c1ccc(NC(=O)c2cc(N3Cc4cnc(N)nc4C3)ccn2)cc1 [Example 83, 4-(2-amino-5,7-dihydro-6H-pyrrolo[3,4-d]pyrimidin-6-yl)-N-(4-isopropylphenyl)pyridine-2-carboxamide]
- IC50: > 10 µM
